# Source: paper PMC5762315, “Inhibition of polo-like kinase 4 (PLK4): a new therapeutic option for rhabdoid tumors and pediatric medulloblastoma” (Oncotarget, 2017)
# Values joined by “and” are separate entries in the source; they are usually repeats but may differ in a detail not shown here. Equal entries are not always repeated.
# Experiments:
# Assay in all cases: Adapta Universal Kinase Assay, panel of 486 biochemical kinase assays
# Design in all cases: % Inhibition Average: concentration or dose not given beside the values
# various kinases [1] = target: various kinases (Homo sapiens, UniProt O00329); conditions: PIK3CD/PIK3R1 (p110 delta/p85 alpha)
# various kinases [2] = target: various kinases (Homo sapiens, UniProt O00443); conditions: PIK3C2A (PI3K-C2 alpha)
# various kinases [3] = target: various kinases (Homo sapiens, UniProt O00750); conditions: PIK3C2B (PI3K-C2 beta)
# various kinases (Homo sapiens, UniProt O00750), sequence (O00750 whole entry): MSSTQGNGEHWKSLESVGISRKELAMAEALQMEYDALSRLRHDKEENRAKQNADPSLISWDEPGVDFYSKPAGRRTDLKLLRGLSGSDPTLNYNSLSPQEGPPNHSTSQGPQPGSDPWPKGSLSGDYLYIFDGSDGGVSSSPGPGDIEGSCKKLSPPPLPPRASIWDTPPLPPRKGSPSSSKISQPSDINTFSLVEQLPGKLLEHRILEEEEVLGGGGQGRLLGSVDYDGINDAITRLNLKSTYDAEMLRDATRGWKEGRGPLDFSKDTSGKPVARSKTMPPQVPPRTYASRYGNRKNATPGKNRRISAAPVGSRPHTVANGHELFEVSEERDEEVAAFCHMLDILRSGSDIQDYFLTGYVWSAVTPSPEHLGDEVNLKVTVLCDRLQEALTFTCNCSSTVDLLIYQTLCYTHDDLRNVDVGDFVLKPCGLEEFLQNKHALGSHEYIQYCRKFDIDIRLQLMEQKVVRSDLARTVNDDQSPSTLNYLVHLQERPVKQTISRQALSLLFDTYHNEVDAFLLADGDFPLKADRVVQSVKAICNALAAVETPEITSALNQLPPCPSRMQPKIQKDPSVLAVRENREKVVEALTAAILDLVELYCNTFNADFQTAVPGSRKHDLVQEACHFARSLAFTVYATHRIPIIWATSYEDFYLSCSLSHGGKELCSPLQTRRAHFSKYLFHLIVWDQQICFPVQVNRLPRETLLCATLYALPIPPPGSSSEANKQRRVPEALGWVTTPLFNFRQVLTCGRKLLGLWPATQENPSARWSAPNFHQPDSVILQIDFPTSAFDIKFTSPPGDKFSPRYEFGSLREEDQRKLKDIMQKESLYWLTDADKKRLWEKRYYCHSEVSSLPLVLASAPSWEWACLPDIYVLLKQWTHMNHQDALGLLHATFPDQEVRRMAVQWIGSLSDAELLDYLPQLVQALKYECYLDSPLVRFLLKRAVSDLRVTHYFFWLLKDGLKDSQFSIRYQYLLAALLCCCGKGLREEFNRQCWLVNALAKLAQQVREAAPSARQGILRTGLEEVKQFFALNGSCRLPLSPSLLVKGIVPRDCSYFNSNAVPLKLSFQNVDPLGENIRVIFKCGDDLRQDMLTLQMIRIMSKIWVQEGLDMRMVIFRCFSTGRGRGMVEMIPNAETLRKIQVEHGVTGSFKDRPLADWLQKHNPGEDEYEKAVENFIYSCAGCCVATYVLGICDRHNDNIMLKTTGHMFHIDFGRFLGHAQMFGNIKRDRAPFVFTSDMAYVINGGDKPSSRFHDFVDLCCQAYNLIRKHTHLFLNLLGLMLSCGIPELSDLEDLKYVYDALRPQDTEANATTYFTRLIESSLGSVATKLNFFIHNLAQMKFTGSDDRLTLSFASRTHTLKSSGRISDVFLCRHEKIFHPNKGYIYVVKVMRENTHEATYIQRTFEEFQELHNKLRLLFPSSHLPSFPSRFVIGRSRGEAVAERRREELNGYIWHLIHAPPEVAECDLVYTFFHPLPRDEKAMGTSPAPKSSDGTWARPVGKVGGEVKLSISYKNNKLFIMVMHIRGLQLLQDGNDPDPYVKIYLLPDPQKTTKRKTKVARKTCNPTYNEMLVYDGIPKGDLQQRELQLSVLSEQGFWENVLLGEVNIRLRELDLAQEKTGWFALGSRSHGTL
# various kinases [4] = target: various kinases (Homo sapiens, UniProt O14986); conditions: kinase PIP5K1B; Adapta
# various kinases (Homo sapiens, UniProt O14986), sequence (O14986 whole entry): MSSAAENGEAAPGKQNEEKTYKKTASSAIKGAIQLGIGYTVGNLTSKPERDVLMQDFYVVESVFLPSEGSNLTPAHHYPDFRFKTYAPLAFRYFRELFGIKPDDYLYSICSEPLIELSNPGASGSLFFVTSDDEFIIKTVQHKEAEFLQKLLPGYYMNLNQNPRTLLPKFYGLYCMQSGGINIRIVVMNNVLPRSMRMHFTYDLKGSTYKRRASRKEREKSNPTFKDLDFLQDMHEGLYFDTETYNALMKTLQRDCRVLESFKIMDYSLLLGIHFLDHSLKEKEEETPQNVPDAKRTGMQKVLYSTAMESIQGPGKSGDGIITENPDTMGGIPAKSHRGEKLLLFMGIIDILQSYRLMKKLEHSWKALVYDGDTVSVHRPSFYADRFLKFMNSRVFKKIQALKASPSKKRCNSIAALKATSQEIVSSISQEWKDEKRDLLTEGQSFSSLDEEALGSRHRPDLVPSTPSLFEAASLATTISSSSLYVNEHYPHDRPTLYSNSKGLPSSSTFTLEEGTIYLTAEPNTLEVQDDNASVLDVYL
# various kinases [5] = target: various kinases (Homo sapiens, UniProt O15111); conditions: CHUK (IKK alpha)
# various kinases [6] = target: various kinases (Homo sapiens, UniProt O60331); conditions: kinase PIP5K1C; Adapta
# various kinases (Homo sapiens, UniProt O60331), sequence (O60331 whole entry): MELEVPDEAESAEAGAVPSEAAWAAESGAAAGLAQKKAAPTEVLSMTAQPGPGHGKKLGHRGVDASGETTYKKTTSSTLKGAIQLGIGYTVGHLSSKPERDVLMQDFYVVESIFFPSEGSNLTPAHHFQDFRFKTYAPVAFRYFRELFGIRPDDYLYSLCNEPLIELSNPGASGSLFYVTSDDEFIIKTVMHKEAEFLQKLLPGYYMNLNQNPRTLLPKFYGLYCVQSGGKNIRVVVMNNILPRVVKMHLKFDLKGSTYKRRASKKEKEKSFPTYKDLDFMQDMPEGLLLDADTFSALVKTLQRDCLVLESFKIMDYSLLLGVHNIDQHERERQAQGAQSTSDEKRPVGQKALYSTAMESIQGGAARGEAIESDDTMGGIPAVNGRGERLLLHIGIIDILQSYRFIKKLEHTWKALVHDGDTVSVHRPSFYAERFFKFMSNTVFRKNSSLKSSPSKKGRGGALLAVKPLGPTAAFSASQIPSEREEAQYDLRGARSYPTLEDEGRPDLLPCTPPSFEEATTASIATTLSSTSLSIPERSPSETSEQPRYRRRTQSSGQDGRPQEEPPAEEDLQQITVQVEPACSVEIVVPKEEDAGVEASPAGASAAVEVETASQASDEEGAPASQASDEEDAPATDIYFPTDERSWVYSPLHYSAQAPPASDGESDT
# various kinases [7] = target: various kinases (Homo sapiens, UniProt O75747); conditions: PIK3C2G (PI3K-C2 gamma)
# various kinases [8] = target: various kinases (Homo sapiens, UniProt P42336)
# various kinases (Homo sapiens, UniProt P42336), sequence (P42336 whole entry): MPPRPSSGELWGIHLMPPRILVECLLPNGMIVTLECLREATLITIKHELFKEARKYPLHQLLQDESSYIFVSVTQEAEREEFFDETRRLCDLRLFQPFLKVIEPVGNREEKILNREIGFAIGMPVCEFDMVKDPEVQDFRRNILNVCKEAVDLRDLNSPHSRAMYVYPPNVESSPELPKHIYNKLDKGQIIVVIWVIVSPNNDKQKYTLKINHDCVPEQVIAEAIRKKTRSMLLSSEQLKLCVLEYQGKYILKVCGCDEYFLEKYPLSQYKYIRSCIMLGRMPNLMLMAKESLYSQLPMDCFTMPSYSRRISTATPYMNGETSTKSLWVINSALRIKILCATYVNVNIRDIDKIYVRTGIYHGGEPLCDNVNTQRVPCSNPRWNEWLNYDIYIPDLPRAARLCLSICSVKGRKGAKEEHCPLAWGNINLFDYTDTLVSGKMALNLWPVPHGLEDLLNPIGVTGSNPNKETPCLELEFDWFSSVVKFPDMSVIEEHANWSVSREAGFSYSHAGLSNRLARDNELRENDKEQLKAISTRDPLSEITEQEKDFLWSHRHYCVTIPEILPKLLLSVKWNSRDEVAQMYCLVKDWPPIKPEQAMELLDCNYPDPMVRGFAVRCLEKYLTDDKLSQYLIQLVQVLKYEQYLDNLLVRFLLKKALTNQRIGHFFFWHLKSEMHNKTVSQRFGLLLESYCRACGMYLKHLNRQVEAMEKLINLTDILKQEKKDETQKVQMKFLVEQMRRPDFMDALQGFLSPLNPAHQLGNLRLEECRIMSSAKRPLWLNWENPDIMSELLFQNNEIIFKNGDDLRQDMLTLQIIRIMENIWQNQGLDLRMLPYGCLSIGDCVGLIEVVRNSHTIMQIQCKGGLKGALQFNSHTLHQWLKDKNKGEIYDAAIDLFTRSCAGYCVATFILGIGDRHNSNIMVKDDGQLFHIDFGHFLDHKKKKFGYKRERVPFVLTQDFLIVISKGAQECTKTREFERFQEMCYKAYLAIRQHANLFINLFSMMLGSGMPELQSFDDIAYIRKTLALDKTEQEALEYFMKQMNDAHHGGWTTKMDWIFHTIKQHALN
# various kinases [9] = target: various kinases (Homo sapiens, UniProt P42336, E542K); conditions: PIK3CA E542K/PIK3R1 (p110 alpha E542K/p85 alpha)
# various kinases (Homo sapiens, UniProt P42336, E542K), sequence (P42336 whole entry E542K): as the sequence (P42336 whole entry) above, with E542K counted along it
# various kinases [10] = target: various kinases (Homo sapiens, UniProt P42336, E545K); conditions: PIK3CA E545K/PIK3R1 (p110 alpha E545K/p85 alpha)
# various kinases (Homo sapiens, UniProt P42336, E545K), sequence (P42336 whole entry E545K): as the sequence (P42336 whole entry) above, with E545K counted along it
# various kinases [11] = target: various kinases (Homo sapiens, UniProt P50613); conditions: CDK7/cyclin H/MNAT1
# various kinases [12] = target: various kinases (Homo sapiens, UniProt P50750); conditions: CDK9/cyclin T1
# various kinases [13] = target: various kinases (Homo sapiens, UniProt P51617); conditions: IRAK1
# various kinases [14] = target: various kinases (Homo sapiens, UniProt Q14012); conditions: CAMK1 (CaMK1)
# various kinases [15] = target: various kinases (Homo sapiens, UniProt Q5S007, G2019S)
# various kinases [16] = target: various kinases (Homo sapiens, UniProt Q5S007, R1441C); conditions: LRRK2 R1441C
# various kinases [17] = target: various kinases (Homo sapiens, UniProt Q8NEB9); conditions: PIK3C3 (hVPS34)
# various kinases [18] = target: various kinases (Homo sapiens, UniProt Q8TCG2); conditions: PI4K2B (PI4K2 beta)
# various kinases [19] = target: various kinases (Homo sapiens, UniProt Q99755); conditions: PIP5K1A
# various kinases [20] = target: various kinases (Homo sapiens, UniProt Q9BTU6); conditions: PI4K2A (PI4K2 alpha)
# various kinases (Homo sapiens, UniProt Q9BTU6), sequence (Q9BTU6 whole entry): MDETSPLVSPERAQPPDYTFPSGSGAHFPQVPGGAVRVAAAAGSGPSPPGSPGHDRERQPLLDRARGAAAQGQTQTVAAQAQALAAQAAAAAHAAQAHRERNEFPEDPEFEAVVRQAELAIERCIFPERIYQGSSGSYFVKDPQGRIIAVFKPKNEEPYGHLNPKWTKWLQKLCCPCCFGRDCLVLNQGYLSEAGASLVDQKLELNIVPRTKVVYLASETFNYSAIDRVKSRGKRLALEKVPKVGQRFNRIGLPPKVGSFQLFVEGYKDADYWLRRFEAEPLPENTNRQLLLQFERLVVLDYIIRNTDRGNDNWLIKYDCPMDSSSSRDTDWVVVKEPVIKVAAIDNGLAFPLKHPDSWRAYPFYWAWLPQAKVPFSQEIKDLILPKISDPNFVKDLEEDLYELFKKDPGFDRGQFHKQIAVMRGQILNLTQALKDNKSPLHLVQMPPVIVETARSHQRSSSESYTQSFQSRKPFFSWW
# various kinases [21] = target: T1, various kinases (Homo sapiens, UniProt Q9NRA0); conditions: kinase SPHK2; Adapta
# T1 sequence (Q9NRA0 1-654): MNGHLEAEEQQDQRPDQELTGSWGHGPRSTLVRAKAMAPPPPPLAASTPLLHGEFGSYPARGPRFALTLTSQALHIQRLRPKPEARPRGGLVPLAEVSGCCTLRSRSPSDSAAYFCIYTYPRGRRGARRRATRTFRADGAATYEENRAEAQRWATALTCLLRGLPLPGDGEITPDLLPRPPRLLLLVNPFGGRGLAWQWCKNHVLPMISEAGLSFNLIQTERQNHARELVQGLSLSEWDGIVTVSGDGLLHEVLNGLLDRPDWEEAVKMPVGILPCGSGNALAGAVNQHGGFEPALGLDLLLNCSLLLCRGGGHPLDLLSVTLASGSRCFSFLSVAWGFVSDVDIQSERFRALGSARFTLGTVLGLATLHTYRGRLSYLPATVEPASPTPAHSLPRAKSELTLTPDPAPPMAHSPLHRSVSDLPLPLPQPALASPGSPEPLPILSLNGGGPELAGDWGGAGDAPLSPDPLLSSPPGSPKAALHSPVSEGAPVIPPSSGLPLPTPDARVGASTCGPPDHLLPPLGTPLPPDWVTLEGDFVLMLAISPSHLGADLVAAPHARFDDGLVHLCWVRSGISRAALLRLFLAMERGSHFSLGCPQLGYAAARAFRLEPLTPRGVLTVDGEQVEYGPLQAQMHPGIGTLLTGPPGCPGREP
# various kinases [22] = target: various kinases (Homo sapiens, UniProt Q9NYA1); conditions: kinase SPHK1; Adapta
# various kinases (Homo sapiens, UniProt Q9NYA1), sequence (Q9NYA1 whole entry): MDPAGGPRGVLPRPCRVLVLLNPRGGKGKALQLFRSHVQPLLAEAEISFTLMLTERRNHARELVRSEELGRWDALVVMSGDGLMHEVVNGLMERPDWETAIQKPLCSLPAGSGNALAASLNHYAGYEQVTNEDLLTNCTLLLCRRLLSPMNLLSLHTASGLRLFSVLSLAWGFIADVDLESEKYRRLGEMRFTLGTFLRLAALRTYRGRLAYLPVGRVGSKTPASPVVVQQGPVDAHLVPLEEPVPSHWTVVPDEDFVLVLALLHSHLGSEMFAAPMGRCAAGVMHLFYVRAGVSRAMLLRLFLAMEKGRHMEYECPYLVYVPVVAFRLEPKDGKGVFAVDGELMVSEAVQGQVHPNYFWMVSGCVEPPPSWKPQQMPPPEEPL
structure (smiles),measurement,setting,value
COc1ccc2c(c1)[C@]1(C[C@H]1c1ccc3c(/C=C/c4ccc(CN5C[C@@H](C)O[C@@H](C)C5)cc4)n[nH]c3c1)C(=O)N2 [CFI-400945],% Inhibition,various kinases [1],-2% and -8%
same,% Inhibition,various kinases [2],0% and 1%
same,% Inhibition,various kinases [3],2% and -1%
same,% Inhibition Average,various kinases [4],-1%
same,% Inhibition Duplicate #1,various kinases [4],2%
same,% Inhibition Duplicate #2,various kinases [4],-3%
same,% Inhibition,various kinases [5],-11%
same,% Inhibition Average,various kinases [6],8%
same,% Inhibition Duplicate #1,various kinases [6],8%
same,% Inhibition Duplicate #2,various kinases [6],8%
same,% Inhibition,various kinases [7],-1% and -6%
same,% Inhibition,various kinases [8]; PIK3CA/PIK3R1 (p110 alpha/p85 alpha),-9% and -6%
same,% Inhibition,various kinases [8]; PIK3CA/PIK3R3 (p110 alpha/p55 gamma),-2% and 6%
same,% Inhibition,various kinases [9],6% and 9%
same,% Inhibition,various kinases [10],-5% and -9%
same,% Inhibition,various kinases [11],-11% and -6%
same,% Inhibition,various kinases [12],17% and 14%
same,% Inhibition,various kinases [13],-8% and -12%
same,% Inhibition,various kinases [14],21% and 24%
same,% Inhibition,various kinases [15]; LRRK2 G2019S,54% and 55%
same,% Inhibition,various kinases [15]; LRRK2 G2019S FL,54% and 50%
same,% Inhibition,various kinases [16],35% and 42%
same,% Inhibition,various kinases [17],8% and 15%
same,% Inhibition,various kinases [18],-13% and -11%
same,% Inhibition,various kinases [19],-3% and 4%
same,% Inhibition,various kinases [20],-1% and 2%
same,% Inhibition Average,various kinases [21],-20%
same,% Inhibition Duplicate #1,various kinases [21],-15%
same,% Inhibition Duplicate #2,various kinases [21],-24%
same,% Inhibition Average,various kinases [22],-12%
same,% Inhibition Duplicate #1,various kinases [22],-11%
same,% Inhibition Duplicate #2,various kinases [22],-14%
